One assay has as its system measles virus polymerase. As to conditions: equivalent measles virus RdRP assay; cited from earlier work.
The subject of the next assay is recRSV-mKate. As to the kind of experiment: microbe, parasite or virus in culture. The class given is cell-based. As to conditions: human respiratory syncytial virus, read-out: EC50, apical RSV shedding.

For `Cn1nc(C(F)(F)F)cc1C(=O)Nc1ccc(S(=O)(=O)N2CCCC[C@H]2CCN2CCOCC2)cc1` [ERDRP-0519], the phosphodiester bond formation result in the assay on measles virus polymerase is recorded as “completely blocks all phosphodiesterbond formation”.

For the molecule `O=c1nc(NO)ccn1[C@@H]1O[C@H](CO)[C@@H](O)[C@H]1O` [NHC, N^4-hydroxycytidine], the half-maximal effective concentration (EC50) with recRSV-mKate stood at 0.05 µM.
